The target in one data set is FGFR1 (h) (Homo sapiens, UniProt P11362). In words: FGFR1 (enzymatic assay), TR-FRET. Type of data set: biochemical. The note with it: FGFR 1 pIC50, 5 μM ATP, 60 min; pIC50 = -log IC50 (M); average if tested multiple times.
The next data set concerns the target FGFR2 (h) (Homo sapiens, UniProt P21802). The data set can be described thus: FGFR2 (enzymatic assay), TR-FRET. It is filed as biochemical. The note with it: 0.4 μM ATP, 60 min; pIC50 = -log IC50 (M); average if tested multiple times; read-out: FGFR 2 pIC50 (converted).
Another data set has as its target FGFR3 (h) (Homo sapiens, UniProt P22607). In words: FGFR3 (enzymatic assay), TR-FRET. The following applies: 25 μM ATP, 60 min; pIC50 = -log IC50 (M); average if tested multiple times; read-out: hFGFR 3 pIC50 (converted). Type of data set: biochemical.
The target of another data set is FGFR4 (h) (Homo sapiens, UniProt P22455). The data set can be described thus: FGFR4 (enzymatic assay), TR-FRET. It is filed as biochemical. The following applies: FGFR 4 pIC50, 5 μM ATP, 60 min; pIC50 = -log IC50 (M); average if tested multiple times.
FGFR4 (h), sequence (P22455 22-802): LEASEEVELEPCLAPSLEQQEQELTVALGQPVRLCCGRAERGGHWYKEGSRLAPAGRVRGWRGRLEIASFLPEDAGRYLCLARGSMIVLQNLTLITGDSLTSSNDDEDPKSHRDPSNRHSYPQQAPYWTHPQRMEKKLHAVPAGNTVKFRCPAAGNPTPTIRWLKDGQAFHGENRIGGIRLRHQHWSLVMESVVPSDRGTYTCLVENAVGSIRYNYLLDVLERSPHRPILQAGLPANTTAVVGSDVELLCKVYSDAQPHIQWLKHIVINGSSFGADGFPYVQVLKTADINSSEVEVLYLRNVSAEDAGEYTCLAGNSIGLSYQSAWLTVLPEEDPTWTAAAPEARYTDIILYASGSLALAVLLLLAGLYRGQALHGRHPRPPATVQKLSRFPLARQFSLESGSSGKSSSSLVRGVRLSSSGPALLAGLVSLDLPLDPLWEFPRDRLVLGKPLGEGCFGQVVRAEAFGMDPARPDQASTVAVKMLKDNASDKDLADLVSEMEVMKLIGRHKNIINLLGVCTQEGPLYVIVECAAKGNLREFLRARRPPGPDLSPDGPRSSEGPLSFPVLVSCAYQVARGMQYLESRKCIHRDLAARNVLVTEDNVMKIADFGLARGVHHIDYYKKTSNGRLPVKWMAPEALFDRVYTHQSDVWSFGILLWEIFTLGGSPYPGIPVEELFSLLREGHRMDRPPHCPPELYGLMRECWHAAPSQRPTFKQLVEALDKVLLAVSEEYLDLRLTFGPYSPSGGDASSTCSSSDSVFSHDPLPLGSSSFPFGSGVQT
A further data set has as its target KDR (h) (Homo sapiens, UniProt P35968). In words: KDR (VEGFR2) (enzymatic assay), TR-FRET. It is filed as biochemical. The following applies: 3 μM ATP, 120 min; pIC50 = -log IC50 (M); average if tested multiple times; read-out: VEGFR KDR pIC50 (converted). As to the method:
KDR (VEGFR2) (Enzymatic Assay)
In a final reaction volume of 30 μL, KDR (h) (150 ng/ml) was incubated with 50 mM HEPES pH 7.5, 6 mM MnCl2, 1 mM DTT, 0.1 mM Na3VO4, 0.01% Triton-X-100, 500 nM Btn-Flt3 and 3 μM ATP in the presence of compound (1% DMSO final). After incubation for 120 minutes at room temperature the reaction was stopped with 2.27 nM EU-anti P-Tyr, 7 mM EDTA, 31.25 nM SA-XL-665 and 0.02% BSA which was present for 60 minutes at room temperature. Time-Resolved Fluorescence Resonance Energy Transfer (TR-FRET) signal (ex340 nm. Em 620 nm, em 655 nm) was measured afterwards and results are expressed in RFU (Relative Fluorescence Units). In this assay, the inhibitory effect of different compound concentrations (range 10 μM to 0.1 nM) was determined and used to calculate an IC50 (M) and pIC50 (−log IC50) value.

Data set [1] addresses T1, Ba/F3-FGFR1-transfected cells (Homo sapiens, UniProt P11362, cells depend on it, form not given).
T1 construct: other: minus IL3; 24 hours, Alamar Blue
The data set can be described thus: Ba/F3-FGFR1 (minus IL3 or plus IL3) cellular proliferation assay, Alamar Blue. The following applies: minus IL3, 24 hours. Type of data set: cell-based. How it is done:
Ba/F3-FGFR1 (Minus IL3 or Plus IL3) (Cellular Proliferation Assay)
(§1) In a 384 well plate, 100 nl of compound dilution in DMSO was sprayed before adding 50 μl cell culture medium (phenol red free RPMI-1640, 10% FBS, 2 mM L-Glutamine and 50 μg/ml Gentamycin) containing 20000 cells per well of Ba/F3-FGFR1-transfected cells. Cells were put in an incubator at 37° C. and 5% CO2. After 24 hours, 10 μl of Alamar Blue solution (0.5 mM K3Fe(CN)6, 0.5 mM K4Fe(CN)6, 0.15 mM Resazurin and 100 mM Phosphate Buffer) was added to the wells, incubated for 4 hours at 37° C. and 5% CO2 before RFU's (Relative Fluorescence Units) (ex. 540 nm., em. 590 nm.) were measured in a fluorescence plate reader.
(§2) In this assay, the inhibitory effect of different compound concentrations (range 10 μM to 0.1 nM) was determined and used to calculate an IC50 (M) and pIC50 (−log IC50) value. As a counterscreen the same experiment was performed in the presence of 10 ng/ml murine IL3.

In data set [2] the target is T2, Ba/F3-FGFR3-transfected cells (Homo sapiens, UniProt P22607, cells depend on it, form not given).
T2 construct: BAF3-FGFR3 (MIN IL3 Alamar Blue- pIC50); other: minus IL3; 24 hours, Alamar Blue
T2 sequence (P22607 whole entry, change not shown): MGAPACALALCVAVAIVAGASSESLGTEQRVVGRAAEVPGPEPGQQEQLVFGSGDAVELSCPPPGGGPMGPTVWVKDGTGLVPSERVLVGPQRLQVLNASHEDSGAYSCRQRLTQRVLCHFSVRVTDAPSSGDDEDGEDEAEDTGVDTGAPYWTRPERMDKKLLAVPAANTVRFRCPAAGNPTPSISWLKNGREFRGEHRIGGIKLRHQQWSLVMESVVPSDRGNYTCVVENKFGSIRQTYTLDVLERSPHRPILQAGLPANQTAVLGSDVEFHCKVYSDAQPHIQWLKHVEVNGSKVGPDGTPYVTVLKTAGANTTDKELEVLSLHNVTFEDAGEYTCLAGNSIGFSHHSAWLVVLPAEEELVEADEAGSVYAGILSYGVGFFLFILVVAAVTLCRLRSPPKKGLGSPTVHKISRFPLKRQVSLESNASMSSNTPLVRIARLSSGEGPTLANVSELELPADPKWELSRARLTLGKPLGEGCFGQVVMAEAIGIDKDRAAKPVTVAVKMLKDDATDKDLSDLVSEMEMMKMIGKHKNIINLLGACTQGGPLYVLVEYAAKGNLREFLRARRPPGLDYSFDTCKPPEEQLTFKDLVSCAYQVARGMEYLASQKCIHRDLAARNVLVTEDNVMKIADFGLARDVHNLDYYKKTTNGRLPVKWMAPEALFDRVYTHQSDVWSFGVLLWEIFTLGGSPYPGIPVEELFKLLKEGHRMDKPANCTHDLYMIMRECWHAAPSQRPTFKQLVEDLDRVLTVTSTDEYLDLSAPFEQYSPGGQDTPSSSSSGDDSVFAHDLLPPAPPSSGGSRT
In words: Ba/F3-FGFR3 (minus IL3 or plus IL3) cellular proliferation assay, Alamar Blue. Type of data set: cell-based. The following applies: minus IL3; 24 hours, Alamar Blue. How it is done:
(§3) Ba/F3-FGFR3 (Minus IL3 or Plus IL3) (Cellular Proliferation Assay)
as §1, with “Ba/F3-FGFR3-transfected” for “Ba/F3-FGFR1-transfected”
as §2

Data set [3] has as its system Ba/F3-FGFR3-transfected cells. Described as above. It is filed as cell-based. The following applies: plus IL3 (10 ng/ml murine IL3, counterscreen); 24 hours, Alamar Blue; read-out: BAF3-FGFR3 (PLUS IL3 Alamar Blue pIC50) (converted). How it is done: as §3
as §1, with “Ba/F3-FGFR3-transfected” for “Ba/F3-FGFR1-transfected”
as §2

Data set [4] has as its target T3, Ba/F3-KDR-transfected cells (Homo sapiens, UniProt P35968, cells depend on it, form not given).
T3 construct: BAF3-KDR (MIN IL3 Alamar Blue pIC50); other: minus IL3; 24 hours, Alamar Blue
In words: Ba/F3-KDR (minus IL3 or plus IL3) cellular proliferation assay, Alamar Blue. The following applies: minus IL3; 24 hours, Alamar Blue. It is filed as cell-based. How it is done: (§4) Ba/F3-KDR (Minus IL3 or Plus IL3) (Cellular Proliferation Assay)
as §1, with “Ba/F3-KDR-transfected” for “Ba/F3-FGFR1-transfected”
as §2

The subject of data set [5] is Ba/F3-KDR-transfected cells. The data set is described as above. It is filed as cell-based. The note with it: plus IL3 (10 ng/ml murine IL3, counterscreen); 24 hours, Alamar Blue; read-out: BAF3-KDR (PLUS IL3 Alamar Blue pIC50) (converted). How it is done: as §4
as §1, with “Ba/F3-KDR-transfected” for “Ba/F3-FGFR1-transfected”
as §2

Data set [6] addresses Ba/F3-FGFR4-transfected cells (Homo sapiens, UniProt P22455). In words: Ba/F3-FGFR4 cellular proliferation assay, Alamar Blue. It is filed as cell-based. The following applies: 24 hours. How it is done: Ba/F3-FGFR4 (Cellular Proliferation Assay)
as §1, with “Ba/F3-FGFR4-transfected” for “Ba/F3-FGFR1-transfected”
In this assay, the inhibitory effect of different compound concentrations (range 10 μM to 0.1 nM) was determined and used to calculate an IC50 (M) and pIC50 (−log IC50) value.

Counter-ions that a name gives are not always drawn.

T1 sequence (P11362 whole entry, change not shown): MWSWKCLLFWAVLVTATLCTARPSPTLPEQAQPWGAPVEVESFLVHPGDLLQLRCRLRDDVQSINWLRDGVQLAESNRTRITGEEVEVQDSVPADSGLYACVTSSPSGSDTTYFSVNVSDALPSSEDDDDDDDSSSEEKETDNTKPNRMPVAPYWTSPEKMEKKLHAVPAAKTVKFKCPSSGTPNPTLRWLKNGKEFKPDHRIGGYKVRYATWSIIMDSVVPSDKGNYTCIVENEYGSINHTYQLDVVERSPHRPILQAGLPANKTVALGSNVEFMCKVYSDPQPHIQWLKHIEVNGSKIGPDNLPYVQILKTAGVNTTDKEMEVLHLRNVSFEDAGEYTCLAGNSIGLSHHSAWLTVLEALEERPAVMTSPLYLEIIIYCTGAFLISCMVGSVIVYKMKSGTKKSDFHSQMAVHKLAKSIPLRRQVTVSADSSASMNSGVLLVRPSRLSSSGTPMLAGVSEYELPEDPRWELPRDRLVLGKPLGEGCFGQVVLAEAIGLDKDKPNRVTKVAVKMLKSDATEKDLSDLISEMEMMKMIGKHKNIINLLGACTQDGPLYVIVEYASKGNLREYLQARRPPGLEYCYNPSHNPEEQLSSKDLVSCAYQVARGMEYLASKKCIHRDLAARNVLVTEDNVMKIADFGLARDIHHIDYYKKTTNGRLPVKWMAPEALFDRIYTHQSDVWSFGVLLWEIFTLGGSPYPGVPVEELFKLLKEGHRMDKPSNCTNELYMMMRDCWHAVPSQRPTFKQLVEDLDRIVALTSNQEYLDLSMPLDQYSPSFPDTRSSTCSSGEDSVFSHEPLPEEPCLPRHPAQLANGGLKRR
FGFR2 (h), sequence (P21802 22-821): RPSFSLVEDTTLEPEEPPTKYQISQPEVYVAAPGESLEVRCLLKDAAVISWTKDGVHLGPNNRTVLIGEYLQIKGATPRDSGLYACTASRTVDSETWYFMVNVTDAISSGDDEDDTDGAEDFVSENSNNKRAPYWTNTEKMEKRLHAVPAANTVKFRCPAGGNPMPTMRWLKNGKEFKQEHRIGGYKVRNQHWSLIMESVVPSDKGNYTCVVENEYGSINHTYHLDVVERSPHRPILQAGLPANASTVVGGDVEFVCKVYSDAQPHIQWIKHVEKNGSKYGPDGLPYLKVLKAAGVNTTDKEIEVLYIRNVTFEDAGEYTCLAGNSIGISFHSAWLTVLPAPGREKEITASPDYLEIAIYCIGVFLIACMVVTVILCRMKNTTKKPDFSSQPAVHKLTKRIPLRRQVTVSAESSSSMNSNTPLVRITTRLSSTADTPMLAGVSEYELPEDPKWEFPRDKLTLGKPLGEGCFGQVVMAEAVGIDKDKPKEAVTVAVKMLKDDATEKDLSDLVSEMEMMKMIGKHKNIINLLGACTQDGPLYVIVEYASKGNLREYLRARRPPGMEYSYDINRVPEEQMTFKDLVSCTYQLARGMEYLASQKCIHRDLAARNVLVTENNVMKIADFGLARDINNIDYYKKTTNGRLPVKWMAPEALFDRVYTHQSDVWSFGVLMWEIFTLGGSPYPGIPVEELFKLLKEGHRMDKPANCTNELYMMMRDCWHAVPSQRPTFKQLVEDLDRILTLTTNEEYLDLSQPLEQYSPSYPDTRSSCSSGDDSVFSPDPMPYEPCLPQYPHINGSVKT
KDR (h), sequence (P35968 20-1356): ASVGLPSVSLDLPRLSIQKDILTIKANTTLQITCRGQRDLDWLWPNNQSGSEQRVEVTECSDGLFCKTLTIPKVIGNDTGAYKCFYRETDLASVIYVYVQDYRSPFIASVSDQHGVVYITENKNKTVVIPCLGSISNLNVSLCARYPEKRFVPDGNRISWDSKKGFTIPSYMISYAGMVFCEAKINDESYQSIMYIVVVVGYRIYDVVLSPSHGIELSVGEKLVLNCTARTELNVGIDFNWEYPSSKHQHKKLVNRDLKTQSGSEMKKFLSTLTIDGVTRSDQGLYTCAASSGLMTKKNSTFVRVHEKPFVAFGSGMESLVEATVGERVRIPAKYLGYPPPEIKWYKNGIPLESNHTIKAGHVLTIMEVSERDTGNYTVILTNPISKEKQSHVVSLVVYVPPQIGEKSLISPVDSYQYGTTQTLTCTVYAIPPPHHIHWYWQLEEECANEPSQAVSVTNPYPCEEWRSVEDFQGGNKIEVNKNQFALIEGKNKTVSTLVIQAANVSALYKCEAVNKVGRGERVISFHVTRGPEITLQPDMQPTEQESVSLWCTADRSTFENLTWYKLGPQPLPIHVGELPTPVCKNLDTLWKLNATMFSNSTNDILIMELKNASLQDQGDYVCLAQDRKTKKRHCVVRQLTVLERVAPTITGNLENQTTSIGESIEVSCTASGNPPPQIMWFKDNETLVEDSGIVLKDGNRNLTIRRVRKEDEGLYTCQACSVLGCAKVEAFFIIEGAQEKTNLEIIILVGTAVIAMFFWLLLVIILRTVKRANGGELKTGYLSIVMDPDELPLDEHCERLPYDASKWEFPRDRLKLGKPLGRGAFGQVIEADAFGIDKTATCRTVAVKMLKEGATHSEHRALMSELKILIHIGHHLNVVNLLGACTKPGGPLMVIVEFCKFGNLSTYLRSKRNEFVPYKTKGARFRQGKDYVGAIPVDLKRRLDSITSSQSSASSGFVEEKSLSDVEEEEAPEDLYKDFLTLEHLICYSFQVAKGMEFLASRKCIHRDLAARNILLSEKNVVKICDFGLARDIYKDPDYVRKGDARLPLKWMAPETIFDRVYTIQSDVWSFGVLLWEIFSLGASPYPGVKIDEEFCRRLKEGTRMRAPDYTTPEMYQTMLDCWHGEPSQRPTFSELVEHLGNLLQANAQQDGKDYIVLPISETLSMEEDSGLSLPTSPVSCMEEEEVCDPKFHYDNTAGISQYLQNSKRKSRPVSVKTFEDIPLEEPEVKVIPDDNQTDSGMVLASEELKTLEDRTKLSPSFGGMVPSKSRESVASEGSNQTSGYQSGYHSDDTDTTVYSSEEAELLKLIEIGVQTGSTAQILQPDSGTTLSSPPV

In turn, `COc1cc(OC)cc(C(CCNC(C)C)c2ccc3ncc(-c4cnn(C)c4)cc3c2)c1` (stereo not drawn) (as salt: HCl) [Compound 41] returned a melting point greater than 300 °C.
For the compound `COc1cc(OC)cc(N(Cc2ncc[nH]2)c2ccc3ncc(C4CCNCC4)cc3c2)c1` [Compound 48a], the IC50 against FGFR1 (h) is 2.95e-07 M; at FGFR2 (h) it was 1.7e-07 M; at FGFR3 (h), 4.17e-07 M; against FGFR4 (h), 8.32e-07 M; on KDR (h), greater than 1e-06 M; in data set [3], greater than 10000 nM. Besides, in [5], the IC50 was greater than 10000 nM. In data set [1], the “BAF3-FGFR1 (MIN IL3 pIC50)” value was less than 5. In [2], the “BAF3-FGFR3 (MIN IL3 Alamar Blue- pIC50)” value is listed as less than 5. In data set [4], the “BAF3-KDR (MIN IL3 Alamar Blue pIC50)” value is given as less than 5. Moreover, the “BAF3-FGFR 4 (pIC50)” value in data set [6] is less than 5.
In the case of `CNCCN(c1ccc2ncc(-c3cnn(C)c3)cc2c1)c1c(F)c(OC)cc(OC)c1F` (as salt: HCl) [Compound 43], the melting point was determined as 180 °C.
With `COc1cc(OC)cc(C(CC(N)=O)c2ccc3ncc(-c4cnn(C)c4)cc3c2)c1` (stereo not drawn) [Compound 40], the IC50 at FGFR1 (h) was 1.86e-07 M; on FGFR2 (h), 3.02e-07 M; on FGFR3 (h) it was 2.19e-07 M; on KDR (h), greater than 1e-06 M; in data set [3], greater than 10000 nM; in data set [5], greater than 10000 nM. In [1], the “BAF3-FGFR1 (MIN IL3 pIC50)” value is listed as less than 5. The “BAF3-FGFR3 (MIN IL3 Alamar Blue- pIC50)” value in data set [2] amounted to 5.08. Also, the “BAF3-KDR (MIN IL3 Alamar Blue pIC50)” value in data set [4] was less than 5. The “BAF3-FGFR 4 (pIC50)” value in data set [6] is listed as less than 5.
For the compound `COc1cc(OC)cc(N(CCCN2CCCC2=O)c2ccc3ncc(-c4cnn(C)c4)cc3c2)c1` (as salt: HCl) (hydrate or solvate) [Compound 10], the melting point was found to be 142 °C.
Take `COc1cc(OC)cc(C(CC#N)c2ccc3ncc(-c4cnn(C)c4)cc3c2)c1` (stereo not drawn) [Compound 39]: the melting point amounted to 172 °C. In addition, the IC50 at FGFR2 (h) is 2.82e-07 M. Besides, the IC50 on FGFR3 (h) was 1.78e-07 M. Further, on FGFR4 (h), the IC50 is greater than 1e-06 M. On KDR (h), the IC50 is greater than 1e-06 M. Further, in [1], the “BAF3-FGFR1 (MIN IL3 pIC50)” value worked out at 5.09. In addition, the “BAF3-FGFR3 (MIN IL3 Alamar Blue- pIC50)” value in data set [2] is recorded as less than 5. Besides, the IC50 in [3] is greater than 10000 nM. In addition, the “BAF3-KDR (MIN IL3 Alamar Blue pIC50)” value in [4] is given as less than 5. In addition, the IC50 in data set [5] was greater than 10000 nM. Further, the “BAF3-FGFR 4 (pIC50)” value in data set [6] is less than 5.
Consider `C#CCN(c1ccc2ncc(-c3cnn(C)c3)cc2c1)c1cc(OC)cc(OC)c1F`, for which the melting point amounted to 120 °C.
On to `COc1cc(OC)cc(N(CCO)c2ccc3ncc(N4CCOCC4)cc3c2)c1` [Compound 54], for which the IC50 at FGFR1 (h) is 3.8e-07 M; at FGFR2 (h), 1.82e-07 M; at FGFR3 (h), 1.45e-07 M; on FGFR4 (h), greater than 1e-06 M; on KDR (h), greater than 1e-06 M; in data set [3] it was greater than 10000 nM. In data set [5], the IC50 was greater than 10000 nM. In addition, the “BAF3-FGFR1 (MIN IL3 pIC50)” value in data set [1] is recorded as less than 5. The “BAF3-FGFR3 (MIN IL3 Alamar Blue- pIC50)” value in [2] is on record as 5.16. Also, the “BAF3-KDR (MIN IL3 Alamar Blue pIC50)” value in [4] is on record as less than 5. Besides, the “BAF3-FGFR 4 (pIC50)” value in data set [6] is given as less than 5.
Compound `COc1cc(OC)cc(/C(=C/C#N)c2ccc3ncc(-c4cnn(C)c4)cc3c2)c1` [Compound 29] displayed a melting point of 86 °C. Moreover, the IC50 on FGFR2 (h) is roughly 6.76e-08 M. Moreover, the IC50 at FGFR3 (h) was 4.57e-08 M. Besides, the IC50 at KDR (h) was 5.62e-07 M. Moreover, the “BAF3-FGFR1 (MIN IL3 pIC50)” value in data set [1] is on record as 5.45. In [2], the “BAF3-FGFR3 (MIN IL3 Alamar Blue- pIC50)” value is on record as 5.29. For the same compound, the “BAF3-KDR (MIN IL3 Alamar Blue pIC50)” value in [4] amounted to 5.15. The “BAF3-FGFR 4 (pIC50)” value in data set [6] is reported as less than 5.
Compound `COc1cc(OC)cc(N(CCNC(C)C)c2ccc3ncc(-c4cnn(CCO)c4)cc3c2)c1` (as salt: HCl) (hydrate or solvate) [Compound 13] showed a melting point of 86 to 115 °C.
On to `COc1cc(OC)cc(N(CCNC(C)C)c2ccc3ncc(-c4ccccc4)cc3c2)c1` [Compound 51], for which the IC50 against FGFR1 (h) was 2.75e-09 M; at FGFR2 (h), 3.98e-09 M; on FGFR3 (h) it was 7.94e-09 M; against FGFR4 (h), 1.38e-08 M; on KDR (h) it was 1.7e-07 M; in data set [3] it was greater than 10000 nM. Also, in [5], the IC50 was roughly 6030 nM. For the same compound, the “BAF3-FGFR1 (MIN IL3 pIC50)” value in [1] is recorded as 6.13. The “BAF3-FGFR3 (MIN IL3 Alamar Blue- pIC50)” value in data set [2] was 5.82. Further, the “BAF3-KDR (MIN IL3 Alamar Blue pIC50)” value in data set [4] is listed as 5.15. Moreover, in [6], the “BAF3-FGFR 4 (pIC50)” value is 5.87.
`COc1cc(OC)cc(C(CCO)c2ccc3ncc(-c4cnn(C)c4)cc3c2)c1` (stereo not drawn) [Compound 34]: the melting point turned out to be 131 °C. Also, the IC50 on FGFR2 (h) was 1.86e-07 M. Besides, the IC50 on FGFR3 (h) was 2.14e-08 M. The same compound had an IC50 against FGFR4 (h) of 4.17e-07 M. Also, the IC50 at KDR (h) was greater than 1e-06 M. Also, in [1], the “BAF3-FGFR1 (MIN IL3 pIC50)” value turned out to be 5.01. The “BAF3-FGFR3 (MIN IL3 Alamar Blue- pIC50)” value in [2] was 5.16. Moreover, the IC50 in [3] was greater than 10000 nM. Also, in data set [4], the “BAF3-KDR (MIN IL3 Alamar Blue pIC50)” value is less than 5. The IC50 in data set [5] was greater than 10000 nM. Besides, the “BAF3-FGFR 4 (pIC50)” value in data set [6] was less than 5.

Values taken from patent US10039759B2, “Quinolines as FGFR kinase modulators” (priority 2011, dated 2018).
